Experimental data reported in patent US8350027B2, “Dual-acting pyrazole antihypertensive agents” (Theravance, Inc., priority 2009, dated 2013).

Key:
[1] = target: T1, human AT1 receptor (Homo sapiens, UniProt P30556); assay: AT1 radioligand binding assay (displacement of [Eu]AngII); conditions: membranes of CHO-K1 cells expressing cloned human AT1 receptor; values given as lower bounds; read-out: AT1 pKi (converted)
T1 construct: expressed in transfected cells; host or cells: CHO-K1
T1 sequence (P30556 1-359): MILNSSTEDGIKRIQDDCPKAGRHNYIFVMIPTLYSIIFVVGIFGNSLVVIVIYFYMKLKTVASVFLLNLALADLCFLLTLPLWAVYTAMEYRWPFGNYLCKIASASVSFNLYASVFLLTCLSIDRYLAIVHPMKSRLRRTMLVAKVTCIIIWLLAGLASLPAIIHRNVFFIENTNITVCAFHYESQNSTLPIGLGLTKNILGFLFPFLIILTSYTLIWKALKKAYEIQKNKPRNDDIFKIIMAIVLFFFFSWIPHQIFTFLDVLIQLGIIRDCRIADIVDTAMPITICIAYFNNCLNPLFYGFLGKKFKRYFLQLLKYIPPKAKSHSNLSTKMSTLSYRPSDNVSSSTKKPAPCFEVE
Procedure, shortened: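 Membranes from CHO-K1 cells stably expressing cloned human AT1, 0.2 μg protein, in 50 mM Tris/HCl pH 7.5, 5 mM MgCl2, 0.025% BSA. Compounds displaced [Eu]AngII over 120 min in the dark at room temperature or 37° C; filter-bound TRF read. Nonspecific binding with 10 μM angiotensin II; IC50 converted to Ki via Cheng-Prusoff, reported as pKi.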

[2] = target: T2, NEP enzyme (Homo sapiens, UniProt P08473); assay: NEP enzyme inhibition assay (fluorogenic peptide substrate); type: biochemical; conditions: values given as lower bounds; * = prodrugs, may not exhibit NEP activity in an in vitro assay; read-out: NEP pIC50 (converted)
T2 construct: purchased R&D Systems, Minneapolis, Minn; 1182-ZN
Procedure, shortened: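 Recombinant human NEP was run with Mca-BK2 (10 μM) at room temperature in Tris buffer with 1 μM Zn. Compounds (10 μM–20 pM, 12 points) were pre-equilibrated 10 min, then reacted 20 min and acid-stopped. Fluorescence ex 320/em 405 nm, one-site competition fit gives pIC50. Thiol compounds may be pre-treated with 400 μM TCEP.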

T2 sequence (P08473 52-750 limits assumed): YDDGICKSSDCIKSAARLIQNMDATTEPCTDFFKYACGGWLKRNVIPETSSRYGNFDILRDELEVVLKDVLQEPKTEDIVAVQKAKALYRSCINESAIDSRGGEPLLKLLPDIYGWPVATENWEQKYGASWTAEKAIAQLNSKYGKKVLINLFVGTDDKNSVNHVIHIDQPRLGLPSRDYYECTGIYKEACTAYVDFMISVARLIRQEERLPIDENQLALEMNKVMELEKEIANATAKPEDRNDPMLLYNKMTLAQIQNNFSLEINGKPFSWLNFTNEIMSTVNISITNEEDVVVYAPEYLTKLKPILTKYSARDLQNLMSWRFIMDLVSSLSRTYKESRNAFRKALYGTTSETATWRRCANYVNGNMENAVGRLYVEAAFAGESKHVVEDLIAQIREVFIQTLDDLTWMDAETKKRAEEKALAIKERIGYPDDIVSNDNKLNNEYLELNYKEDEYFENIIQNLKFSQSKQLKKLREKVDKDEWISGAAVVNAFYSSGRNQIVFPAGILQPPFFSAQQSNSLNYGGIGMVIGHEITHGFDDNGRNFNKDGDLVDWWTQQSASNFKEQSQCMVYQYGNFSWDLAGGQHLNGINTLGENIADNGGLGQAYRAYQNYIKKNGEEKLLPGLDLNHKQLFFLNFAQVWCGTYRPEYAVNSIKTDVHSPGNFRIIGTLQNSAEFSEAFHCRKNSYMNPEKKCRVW

| SMILES | Ki [1] [nM] | IC50 [2] [nM] |
| --- | --- | --- |
| CCCc1cc(C(=O)N[C@H](Cc2ccccc2)[C@@H](O)C(=O)O)nn1Cc1ccc(-c2ccccc2S(=O)(=O)NC(=O)COC)cc1 [Example 7-8, (2R,3R)-2-Hydroxy-3-({1-[2′-(2-methoxyacetylsulfamoyl)biphenyl-4-ylmethyl]-5-propyl-1H-pyrazole-3-carbonyl}amino)-4-phenylbutyric acid] | ≤ 10 | ≤ 1000 |
| CCCc1cc(C(=O)N[C@H](Cc2ccccc2)[C@@H](O)C(=O)O)nn1Cc1ccc(-c2ccccc2S(=O)(=O)NC(=O)c2ccccn2)cc1 [Example 7-9, (2R,3R)-2-Hydroxy-4-phenyl-3-[(5-propyl-1-{2′-[(pyridine-2-carbonyl)sulfamoyl]biphenyl-4-ylmethyl}-1H-pyrazole-3-carbonyl)amino]butyric acid] | ≤ 10 | ≤ 1000 |
| CCCc1cc(C(=O)N[C@H](Cc2ccccc2)[C@@H](O)C(=O)O)nn1Cc1ccc(-c2ccccc2S(=O)(=O)NC(=O)CC)cc1 [Example 7-10, (2R,3R)-2-Hydroxy-4-phenyl-3-{[1-(2′-propionylsulfamoylbiphenyl-4-ylmethyl)-5-propyl-1H-pyrazole-3-carbonyl]amino}butyric acid] | ≤ 10 | ≤ 100 |
| CCCc1cc(C(=O)N[C@H](Cc2ccccc2)[C@@H](O)C(=O)O)nn1Cc1ccc(-c2ccccc2S(=O)(=O)NC(=O)NC)cc1 [Example 7-11, (2R,3R)-2-hydroxy-3-(1-((2′-(N-(methylcarbamoyl)sulfamoyl)biphenyl-4-yl)methyl)-5-propyl-1H-pyrazole-3-carboxamido)-4-phenylbutanoic acid] | ≤ 10 | ≤ 100 |
| CCCc1cc(C(=O)N[C@H](Cc2ccccc2)[C@@H](O)C(=O)O)nn1Cc1ccc(-c2ccccc2S(=O)(=O)NC(=O)c2ccccc2)cc1 [Example 7-12, (2R,3R)-3-{[1-(2′-Benzoylsulfamoylbiphenyl-4-ylmethyl)-5-propyl-1H-pyrazole-3-carbonyl]amino}-2-hydroxy-4-phenylbutyric acid] | ≤ 10 | ≤ 1000 |
| CCCc1cc(C(=O)N[C@H](Cc2ccccc2)[C@@H](O)C(=O)O)nn1Cc1ccc(-c2ccccc2S(=O)(=O)NC(=O)[C@H](C)O)cc1 [Example 7-13, (2R,3R)-2-Hydroxy-3-({1-[2′-((S)-2-hydroxypropionylsulfamoyl)biphenyl-4-ylmethyl]-5-propyl-1H-pyrazole-3-carbonyl}amino)-4-phenylbutyric acid] | ≤ 10 | ≤ 100 |
| CCCc1cc(C(=O)N[C@H](Cc2ccccc2)[C@@H](O)C(=O)O)nn1Cc1ccc(-c2ccccc2S(=O)(=O)NC(=O)C(C)(C)O)cc1 [Example 7-14, (2R,3R)-2-Hydroxy-3-({1-[2′-(2-hydroxy-2-methylpropionylsulfamoyl)biphenyl-4-ylmethyl]-5-propyl-1H-pyrazole-3-carbonyl}amino)-4-phenylbutyric acid] | ≤ 10 | ≤ 100 |
| CCCc1cc(C(=O)N[C@H](Cc2ccccc2)[C@@H](O)C(=O)O)nn1Cc1ccc(-c2ccccc2S(=O)(=O)NC(=O)CO)cc1 [Example 7-15, (2R,3R)-2-Hydroxy-3-({1-[2′-(2-hydroxyacetylsulfamoyl)biphenyl-4-ylmethyl]-5-propyl-1H-pyrazole-3-carbonyl}amino)-4-phenylbutyric acid] | ≤ 10 | ≤ 100 |
| CCCc1cc(C(=O)N[C@H](Cc2ccccc2)[C@@H](O)C(=O)O)nn1Cc1ccc(-c2ccccc2S(=O)(=O)NC(=O)[C@@H](C)O)cc1 [Example 7-16, (2R,3R)-2-Hydroxy-3-({1-[2′-((R)-2-hydroxypropionylsulfamoyl)biphenyl-4-ylmethyl]-5-propyl-1H-pyrazole-3-carbonyl}amino)-4-phenylbutyric acid] | ≤ 10 | ≤ 100 |
| CCCc1cc(C(=O)N[C@H](Cc2ccccc2)[C@@H](O)C(=O)O)nn1Cc1ccc(-c2ccccc2S(=O)(=O)NC(=O)CCOC)cc1 [Example 7-17, (2R,3R)-2-Hydroxy-3-({1-[2′-(3-methoxy-propionylsulfamoyl)biphenyl-4-ylmethyl]-5-propyl-1H-pyrazole-3-carbonyl}amino)-4-phenylbutyric acid] | ≤ 10 | ≤ 100 |
| CCCc1cc(C(=O)N[C@@H](CC(=O)O)Cc2ccccc2Cl)nn1Cc1ccc(-c2ccccc2S(=O)(=O)NC(=O)COC)cc1 [Example 7-18, (R)-4-(2-Chlorophenyl)-3-({1-[2′-(2-methoxyacetylsulfamoyl)biphenyl-4-ylmethyl]-5-propyl-1H-pyrazole-3-carbonyl}amino)butyric acid] | ≤ 10 | ≤ 1000 |
| CCCc1cc(C(=O)N[C@H](Cc2ccccc2)[C@@H](O)C(=O)O)nn1Cc1ccc(-c2ccccc2S(=O)(=O)NC(=O)C(C)(C)N)cc1 [Example 7-19, (2R,3R)-3-({1-[2′-(2-Amino-2-methylpropionylsulfamoyl)biphenyl-4-ylmethyl]-5-propyl-1H-pyrazole-3-carbonyl}amino)-2-hydroxy-4-phenylbutyric acid] | ≤ 100 | ≤ 1000 |
| CCCc1cc(C(=O)N[C@H](Cc2ccccc2)[C@@H](O)C(=O)O)nn1Cc1ccc(-c2ccccc2S(=O)(=O)NC(=O)N(C)C)cc1 [Example 7-20, (2R,3R)-3-(1-((2′-(N-(dimethylcarbamoyl)sulfamoyl)biphenyl-4-yl)methyl)-5-propyl-1H-pyrazole-3-carboxamido)-2-hydroxy-4-phenylbutanoic acid] | ≤ 10 | ≤ 100 |
| CCCc1cc(C(=O)N[C@H](Cc2ccccc2)[C@@H](O)C(=O)O)nn1Cc1ccc(-c2ccccc2S(=O)(=O)NC(=O)N2CCCC2)cc1 [Example 7-21, (2R,3R)-2-Hydroxy-4-phenyl-3-[(5-propyl-1-{2′-[(pyrrolidine-1-carbonyl)sulfamoyl]biphenyl-4-ylmethyl}-1H-pyrazole-3-carbonyl)amino]butyric acid] | ≤ 100 | ≤ 100 |
| CCCc1cc(C(=O)N[C@H](Cc2ccccc2)[C@@H](O)C(=O)O)nn1Cc1ccc(-c2ccccc2S(=O)(=O)NC(=O)N2CCOCC2)cc1 [Example 7-22, (2R,3R)-2-Hydroxy-3-[(1-{2′-[(morpholine-4-carbonyl)sulfamoyl]biphenyl-4-ylmethyl}-5-propyl-1H-pyrazole-3-carbonyl)amino]-4-phenylbutyric acid] | ≤ 100 | ≤ 100 |
| CCCc1cc(C(=O)N[C@@H](CS)Cc2ccccc2)nn1Cc1ccc(-c2ccccc2C(=O)O)cc1F [Example 8, 4′-[3-((R)-1-Benzyl-2-mercaptoethylcarbamoyl)-5-propylpyrazol-1-ylmethyl]-3′-fluorobiphenyl-2-carboxylic acid] | ≤ 100 | ≤ 100 |
| CCCc1cc(C(=O)N[C@@H](CS)CC(C)C)nn1Cc1ccc(-c2ccccc2C(=O)O)cc1F [Example 9-1, 3′-Fluoro-4′-[3-((R)-1-mercaptomethyl-3-methylbutylcarbamoyl)-5-propylpyrazol-1-ylmethyl]biphenyl-2-carboxylic acid] | ≤ 100 | ≤ 100 |
| CCOc1cc(C(=O)N[C@@H](CS)Cc2ccccc2)nn1Cc1ccc(-c2ccccc2C(=O)O)cc1F [Example 9-2, 4′-[3-((R)-1-Benzyl-2-mercaptoethylcarbamoyl)-5-ethoxypyrazol-1-ylmethyl]-3′-fluorobiphenyl-2-carboxylic acid] | ≤ 100 | ≤ 100 |
